What was measured:
Format in all cases: protein assay
Trypsin [1] = target: T1, Trypsin (Homo sapiens, UniProt P07477+P07478+P35030); test: Inhibition of trypsin (unknown origin) using BApNA as substrate incubated for 15 min prior to substrate addition measured after 30 min by UV/VIS spectrophotometric analysis
Trypsin [2] = target: T1, Trypsin; test: Inhibition of trypsin (unknown origin) using BApNA as substrate at 2 mg/ml incubated for 15 min prior to substrate addition measured after 30 min by UV/VIS spectrophotometric analysis
Trypsin [3] = target: T1, Trypsin; test: Non-competitive inhibition of trypsin (unknown origin) using BApNA as substrate by Lineweaver-Burk/Dixon plot analysis

Row | SMILES | IC50 (Trypsin [1]) [µM] | inhibition (Trypsin [2]) [%] | Ki (Trypsin [3]) [µM]
1 | O=S(=O)(F)Cc1ccccc1 [PHENYLMETHYLSULFONYLFLUORIDE] | 110 | 87.4 | 
2 | O=c1c(O)c(-c2ccc(O)c(O)c2)oc2cc(O)cc(O)c12 [QUERCETIN] | 19 | 84.1 | 13.1
3 | C[C@@H]1O[C@@H](OC[C@H]2O[C@@H](Oc3c(-c4ccc(O)c(O)c4)oc4cc(O)cc(O)c4c3=O)[C@H](O)[C@@H](O)[C@@H]2O)[C@H](O)[C@H](O)[C@H]1O [RUTIN] | 16 | 75.2 | 17.5
